Here are results for 11 molecules from publication PMC7838034 (Acta Pharmaceutica Sinica. B, 2020).

Data set [1] has as its system protein expression in MDA-MB-468 cells. The data set can be described thus: Western blot analysis. It counts as cell-based, human. For orientation: Immunoblotting shows a protein as a band on a membrane.
The test system of data set [2] is BRD4 and PARP1 in MCF-7 tumor tissues. The data set can be described thus: IHC staining of tumor tissue. Conditions: 19d treatment groups. It counts as in vivo, nude mice (BALB/c).
In data set [3] the target is recombinant BRD4(BD1 + BD2) (Homo sapiens, UniProt O60885). The data set can be described thus: BRD4 inhibition assay. It counts as binding. Conditions: for inhibition at 1 µM: read-out: Inhibition rate BRD4, 1 μmol/L; for inhibition at 1 µM / inhibition at 10 µM: tested in duplicate, average; for inhibition at 10 µM: read-out: Inhibition rate BRD4, 10 μmol/L.
Data set [4] in a line: Pharmacokinetic study, oral. Format: in vivo, Sprague–Dawley rats.
For data set [5], the system named is BRD4 and PARP1 in MDA-MB-468 tumor tissues. The data set can be described thus: IHC staining of tumor tissue. It counts as in vivo, nude mice (BALB/c). The note with it: 40 mg/kg, compared with control group.
Data set [6] relates to MCF-7 cells. The data set can be described thus: Annexin V-FITC/PI apoptosis assay. It counts as cell-based, human.
In data set [7] the test system is MDA-MB-468 cells. The data set can be described thus: Cell viability assay. It counts as cell-based, human. Conditions: Homo sapiens, MDA-MB-468, 24 h, read-out: Anti-proliferative activity (IC50).
Data set [8] deals with MDA-MB-468 cells. The data set can be described thus: Colony formation assay. Conditions: compared with DMSO-treated control. It counts as cell-based, human.
Data set [9] deals with PARP1 (Homo sapiens, UniProt P09874). The data set can be described thus: PARP1 inhibition assay. Conditions: tested in duplicate, average; for inhibition at 1 µM: read-out: Inhibition rate PARP1, 1 μmol/L; for inhibition at 10 µM: read-out: Inhibition rate PARP1, 10 μmol/L. Format: biochemical.
In data set [10] the test system is MDA-MB-468 tumor xenograft. The data set can be described thus: MDA-MB-468 breast cancer xenograft model.
Data set [11] concerns MCF-7 tumor xenograft. The data set can be described thus: MCF-7 breast cancer xenograft model.
Data set [12] can be described thus: HE staining of major organs of xenograft mice. It counts as in vivo, nude mice (BALB/c). The note with it: after 19d treatment, all groups of both xenograft models.
Data set [13] relates to MDA-MB-468 cells. The data set can be described thus: Annexin V-FITC/PI apoptosis assay. It counts as cell-based, human. Conditions: 1, 3.3 and 10 μmol/L.
[14] abbreviates: male, Sprague-Dawley, rat, plasma, po, 10 mg/kg.

Sequence of PARP1 (P09874 whole entry): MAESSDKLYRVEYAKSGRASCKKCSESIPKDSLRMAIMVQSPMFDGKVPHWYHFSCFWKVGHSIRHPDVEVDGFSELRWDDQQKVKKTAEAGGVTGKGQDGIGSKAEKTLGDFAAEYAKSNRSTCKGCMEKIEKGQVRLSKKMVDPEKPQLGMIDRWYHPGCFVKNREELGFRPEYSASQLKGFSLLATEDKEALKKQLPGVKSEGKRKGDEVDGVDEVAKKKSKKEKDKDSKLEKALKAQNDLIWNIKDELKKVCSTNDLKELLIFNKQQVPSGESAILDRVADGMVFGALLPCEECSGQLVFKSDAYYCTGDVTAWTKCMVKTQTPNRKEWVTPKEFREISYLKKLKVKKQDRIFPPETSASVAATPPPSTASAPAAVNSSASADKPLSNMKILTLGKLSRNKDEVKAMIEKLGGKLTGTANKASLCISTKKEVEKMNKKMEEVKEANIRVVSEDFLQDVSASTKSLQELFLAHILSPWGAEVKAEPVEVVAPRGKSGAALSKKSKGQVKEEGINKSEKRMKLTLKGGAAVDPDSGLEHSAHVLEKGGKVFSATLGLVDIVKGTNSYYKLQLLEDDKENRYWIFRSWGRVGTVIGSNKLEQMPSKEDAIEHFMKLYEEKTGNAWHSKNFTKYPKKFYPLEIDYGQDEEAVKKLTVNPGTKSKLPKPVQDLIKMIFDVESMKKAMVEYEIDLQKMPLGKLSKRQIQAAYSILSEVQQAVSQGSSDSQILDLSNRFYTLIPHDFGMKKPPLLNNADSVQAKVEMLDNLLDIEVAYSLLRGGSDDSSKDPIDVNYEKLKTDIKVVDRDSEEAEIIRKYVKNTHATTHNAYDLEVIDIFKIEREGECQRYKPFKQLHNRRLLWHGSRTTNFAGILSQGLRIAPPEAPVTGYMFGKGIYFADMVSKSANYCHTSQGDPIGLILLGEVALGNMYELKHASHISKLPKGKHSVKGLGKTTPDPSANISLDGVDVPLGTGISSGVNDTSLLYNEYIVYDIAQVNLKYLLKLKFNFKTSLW

`COc1cc(OC)c2c(=O)[nH]c(-c3ccc(OCCOc4ccccc4C(N)=O)cc3)nc2c1` [Compound 19d, 2-(2-(4-(5,7-Dimethoxy-4-oxo-3,4-dihydroquinazolin-2-yl)phenoxy)ethoxy)benzamide]: in data set [1] (2 μmol/L, 24 h), the PAR expression result is reported as “effective downregulation” and the c-Myc expression entry is “higher c-Myc inhibition efficiency than RVX-208”. In [1] (1, 3.3 and 10 μmol/L), the “BAX and active form of caspase-3 expression” value is reported as “increased”; the BCL-2 expression result was “remarkably downregulated”. Also, the “expression of c-Myc and PAR” value in data set [1] (1, 3.3 and 10 μmol/L, 24 h) was “decreased the expression of c-Myc and PAR in a dose-dependent manner”. Also, the “expression levels of BRD4 and PARP1 in tumor tissues” value in data set [2] is “slightly downregulated”. Further, the “improved efficacy against BRD4 than RVX-208” value in [3] (ratio of BRD4 IC50 values) is listed as > 30 fold. In addition, in data set [3], the inhibition at 1 µM turned out to be 69% and the inhibition at 10 µM was 92%. The “AUC0−∞” value in data set [4] (SD rats, p.o. 10 mg/kg, n = 3, mean ± SD) came to 144.72 ± 25.51 ng·h/mL. In [4] (setting [14]), this molecule registered an AUC(0-t) of 114 ± 15.8 ng·h/mL and an MRT inf of 5.35 ± 0.44 h. For the same molecule, the “expression levels of BRD4 and PARP1 in tumor tissues” value in data set [5] is given as “effectively suppressed”. For the same molecule, the apoptosis induction result in data set [6] is given as “no significant changes”. In data set [7], the concentration for half-maximal inhibition (IC50) came out at 3.4 ± 1.1 µM. In addition, the colony counts entry in data set [8] is “remarkably decreased the colony counts”. In addition, in data set [9], the inhibition at 1 µM is 37% and the inhibition at 10 µM came to 88%. Further, the “tumor growth inhibition (TGI)” value in [10] (80 mg/kg oral, once a day) is 55.3%. Further, in data set [10] (20, 40 and 80 mg/kg oral), the “body weight change and death during treatment” value was “slight body weight change and no death of mice”. Also, the TGI rate in [11] (80 mg/kg oral, once a day) was determined as 48.3%. Also, the “toxicity (body weight) of the dosages used” value in data set [11] (20, 40 and 80 mg/kg oral) is given as “no apparent toxicity”. In addition, the “histological changes in major organs (HE)” value in [12] is given as “no visible histological changed”. In data set [13], the apoptosis induction result is “induced apoptosis in a dose-dependent manner”.
Consider `COc1cc(OC)c2c(=O)[nH]c(-c3ccc(OCCOn4nnc5ccccc54)cc3)nc2c1` [Compound 19k, 2-(4-(2-((1H-Benzo[d][1,2,3]triazol-1-yl)oxy)ethoxy)phenyl)-5,7-dimethoxyquinazolin-4(3H)-one], for which the inhibition at 1 µM is 13% in data set [3] and 7% in [9]. In addition, the inhibition at 10 µM in data set [3] turned out to be 83%; in [9], 29%. Further, the IC50 in data set [7] came to 22.9 ± 2.4 µM.
Turning to `COc1cc(OC)c2c(=O)[nH]c(-c3ccc(OCCOn4nnc5ccccc54)c(F)c3)nc2c1` [Compound 19l, 2-(4-(2-((1H-Benzo[d][1,2,3]triazol-1-yl)oxy)ethoxy)-3-fluorophenyl)-5,7-dimethoxyquinazolin-4(3H)-one], the inhibition at 1 µM in data set [3] is 29%; in data set [9], 1%. Besides, the inhibition at 10 µM in data set [3] is 80%; in [9], 14%. The IC50 in data set [7] was found to be 23.7 ± 3.3 µM.
The matching figures for `COc1cc(OC)c2c(=O)[nH]c(-c3cc(C)c(OCCOc4ccc5cn[nH]c5c4)c(C)c3)nc2c1` [Compound 19m, 2-(4-(2-((1H-Indazol-6-yl)oxy)ethoxy)-3,5-dimethylphenyl)-5,7-dimethoxyquinazolin-4(3H)-one]: 15%, 7%, 46%, 11% and > 30 µM.
For `COc1cc(OC)c2c(=O)[nH]c(-c3cc(OC)c(OCCOc4ccc5cn[nH]c5c4)c(OC)c3)nc2c1` [Compound 19n, 2-(4-(2-((1H-Indazol-6-yl)oxy)ethoxy)-3,5-dimethoxyphenyl)-5,7-dimethoxyquinazolin-4(3H)-one] the same measures were 14%, 9%, 45%, 16% and > 30 µM.
For `COc1cc(OC)c2c(=O)[nH]c(-c3ccc(OCCOc4ccc5cn[nH]c5c4)cc3)nc2c1` [Compound 19o, 2-(4-(2-((1H-Indazol-6-yl)oxy)ethoxy)phenyl)-5,7-dimethoxyquinazolin-4(3H)-one] the same measures were 3%, 3%, 56%, 13% and > 30 µM.
In the case of `COc1cc(OC)c2c(=O)[nH]c(-c3ccc(OCCOn4nnc5ccccc54)c(Cl)c3)nc2c1` [Compound 19p, 2-(4-(2-((1H-Benzo[d][1,2,3]triazol-1-yl)oxy)ethoxy)-3-chlorophenyl)-5,7-dimethoxyquinazolin-4(3H)-one], in data set [3], the inhibition at 1 µM is 3% and the inhibition at 10 µM came out at 44%. In data set [7], the concentration for half-maximal inhibition (IC50) was > 30 µM. In [9], the inhibition at 1 µM was determined as 3% and the inhibition at 10 µM is 6%.
Consider `COc1cc(OC)c2c(=O)[nH]c(-c3cc(F)ccc3OCCOc3ccccc3C(N)=O)nc2c1` [Compound 19s, 2-(2-(2-(5,7-Dimethoxy-4-oxo-3,4-dihydroquinazolin-2-yl)-4-fluorophenoxy)ethoxy)benzamide], for which, in [3], the inhibition at 1 µM is 8% and the inhibition at 10 µM is 74%. Moreover, the IC50 in [7] was found to be 8.7 ± 5.2 µM. Further, in data set [9], the inhibition at 1 µM stood at 12% and the inhibition at 10 µM stood at 65%.
The matching figures for `COc1cc(OC)c2c(=O)[nH]c(-c3ccc(OCCOc4ccc5nc[nH]c(=O)c5c4)cc3)nc2c1` [Compound 19t, 5,7-Dimethoxy-2-(4-(2-((4-oxo-3,4-dihydroquinazolin-6-yl)oxy)ethoxy)phenyl)quinazolin-4(3H)-one]: 9%, 67%, > 30 µM, 1% and 25%.
For `COc1cc(OC)c2c(=O)[nH]c(-c3ccc(OCCOc4ccncc4C(N)=O)cc3)nc2c1` [Compound 19u, 4-(2-(4-(5,7-Dimethoxy-4-oxo-3,4-dihydroquinazolin-2-yl)phenoxy)ethoxy)nicotinamide] the same measures were 6%, 77%, 6.7 ± 2.4 µM, 36% and 81%.
For `COc1cc(OC)c2c(=O)[nH]c(-c3cc(C)c(OCCO)c(C)c3)nc2c1` [RVX-208, reference compound], in data set [3], the inhibition at 1 µM amounted to 20% and the inhibition at 10 µM amounted to 60%. The IC50 in data set [7] was > 30 µM. Further, in [9], the inhibition at 1 µM was 1% and the inhibition at 10 µM was found to be 4%.

Usually AUC(0-t) stands for exposure summed from dosing to a finite time, without extrapolation to infinity. Low values mean less exposure, high ones more exposure. As usually defined, the MRT inf is a mean duration of stay, worked out from the concentration-time curve. A word on the IC50: it is the concentration that inhibits the measured activity by half.
